In patent US8999957B2, “Heterocyclic compounds as ERK inhibitors” (Merck Sharp & Dohme Corp., priority 2010, dated 2015):
Read-outs that look alike come from different tables or passages of the source.

Assays:
ERK protein = ERK protein (Mus musculus, UniProt P63085); experiment: TdF (Temperature Dependence Fluorescence, thermal shift) assay for ERK; assay type: binding
From the text: Assays: TdF Assay for ERK […] The TdF assay was mainly conducted in the 96-well based CHROMO-4 real time fluorescence plate reader (BioRad). The Sypro Orange (Sigma-Aldrich), environmentally sensitive fluorescence dye, was used to monitor the protein folding-unfolding transition. Protein-ligand binding was gauged by the change (or shift) in the unfolding transition temperature (ΔTm) acquired at protein alone with respect to protein in the presence of ligand of interest. Compound of interest was first prepared in DMSO stock (typical concentration: 10 mM). […] Final percentage of DMSO resided in the sample was 2%. The sample plate was heated from 30° C. to 90° C. with thermal ramping rate of 1° C./min. […] The instrument thermal stability was ±0.2° C. The melting temperatures (Tm) for ERK protein under aforementioned conditions occurred at 61.0±0.2° C. and 64.8±02° C. respectively. Theoretical Basis for TdF-Based Ligand Binding Affinity Constant […] In brief, the binding constant of the ligand at the Tm is expressed as below: [formula] where T0 is the midpoint of unfolding for unliganded protein and Tm is the midpoint of unfolding in presence of ligand. [LTm] is free ligand at Tm. The ΔHu and ΔCpu are the enthalpy of unfolding and heat capacity change of unfolding for the protein respectively. Following algorithm derived by Winsor and coworker, the T0, ΔHu and ΔCpu can be determined separately from nonlinear regression fitting the protein alone melting curve: Where F(T) is the observed fluorescence intensity at any temperature T, Yn and Yu are the predicted fluorescence intensities for fully folded and unfolded protein, respectively; mn and mu are slope correction for changes in Yn and Yu with respect to changes in temperature (analogously replace T0 with Tm in the above equation for liganded protein to yield Tm). […] [formula] where ΔHL (T) is the van't Hoff enthalpy of ligand binding at temperature T and ΔCpL is the heat capacity upon ligand binding. For simplicity, the ΔCpL and ΔHL (T) were set to zero and −7 kcal/mol respectively.

[1] = biological target: inactive ERK2 (unphosphorylated Mouse ERK2 protein) (Mus musculus (Mouse), UniProt P63085); experiment: Coupled ERK2 (cERK) assay, coupled MEK1/ERK2 IMAP assay; assay type: biochemical; conditions: 30 μM ATP
Method: 14 μl of kinase buffer (10 mM Tris.HCl pH 7.2, 10 mM MgCl2, 0.01% Tween-20, 1 mM DTT) containing 0.4 ng unphosphorylated Mouse ERK2 protein was added to each well of a black 384-well assay plate. […] DMSO concentration during initial incubation is 6.7%. ERK2 activity was determined to be insensitive to DMSO concentrations up to 20%. ERK2 was then activated and it's kinase activity measured by the addition of 10 μl kinase buffer with the following components (final concentration per reaction): 2 ng active (phosphorylated) human MEK1 protein and 4 μM (total) ERK2 IMAP substrate peptides (3.9 μM unlabeled […]-CONH2 and 100 nM […](5-carboxyfluorescein)-CONH2) and 30 μM ATP. DMSO concentration during ERK activation was 4%. After one hour, reactions were terminated by addition of 60 μl IMAP detections beads in binding buffer (Molecular Devices). Binding was allowed to equilibrate for 30 minutes before reading the plate on an LJL Analyst Fluorescence Polarization plate reader. […] Active compounds were reconfirmed in an independent assay.

[2] = biological target: fully phosphorylated, active Mouse ERK2 protein (Mus musculus (Mouse), UniProt P63085); experiment: Active ERK2 (aERK) IMAP assay, condition 1; assay type: biochemical; conditions: aERK assay condition 1, 30 μM ATP
Method: Active ERK2 (aERK) Assay: (Unless Indicated Otherwise, the Data Provided for aERK was obtained using Condition 1)
Activated ERK2 activity was also determined in the IMAP assay format using the procedure outlined above. […] Reactions proceeded for 30 minutes before termination by addition of 60 μl IMAP detection beads in binding buffer. Plates were read as above after 30 minute binding equilibration.

[3] = 3 μM ERK protein, uncertainty estimated ±50%, read-out: Kd TdF

ERK protein, sequence (P63085 2-358 limits assumed): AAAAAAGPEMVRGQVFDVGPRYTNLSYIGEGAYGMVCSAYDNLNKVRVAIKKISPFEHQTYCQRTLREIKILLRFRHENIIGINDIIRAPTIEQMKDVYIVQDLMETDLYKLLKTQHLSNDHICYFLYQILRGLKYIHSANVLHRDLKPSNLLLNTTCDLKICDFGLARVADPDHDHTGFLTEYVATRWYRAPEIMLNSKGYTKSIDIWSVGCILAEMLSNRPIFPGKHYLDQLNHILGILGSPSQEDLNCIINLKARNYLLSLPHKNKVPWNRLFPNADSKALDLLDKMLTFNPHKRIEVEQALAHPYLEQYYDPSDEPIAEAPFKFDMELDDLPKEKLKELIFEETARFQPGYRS
fully phosphorylated, active Mouse ERK2 protein, sequence (P63085 whole entry): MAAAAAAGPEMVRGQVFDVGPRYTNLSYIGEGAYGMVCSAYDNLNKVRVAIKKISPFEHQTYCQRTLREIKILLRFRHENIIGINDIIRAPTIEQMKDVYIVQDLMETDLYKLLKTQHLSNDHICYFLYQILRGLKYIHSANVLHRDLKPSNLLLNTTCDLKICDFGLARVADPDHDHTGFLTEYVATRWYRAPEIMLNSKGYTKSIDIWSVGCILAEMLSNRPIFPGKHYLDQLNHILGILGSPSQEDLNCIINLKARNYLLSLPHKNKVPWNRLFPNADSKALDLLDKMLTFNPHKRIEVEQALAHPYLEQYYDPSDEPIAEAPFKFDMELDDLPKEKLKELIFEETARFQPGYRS
inactive ERK2 (unphosphorylated Mouse ERK2 protein), sequence (P63085 whole entry): as above

| SMILES | Kd (ERK protein; [3]) | IC50 [1] | IC50 [2] | Kd (ERK protein; read-out: Kd TdF, 3 μM ERK protein, uncertainty estimated ±50%) |
| --- | --- | --- | --- | --- |
| O=C(N[C@@H]1CCCN(Cc2ccccc2F)C1)c1ccc2[nH]nc(-c3ccnc(Cl)c3)c2c1 | 0.58 nM | 25 nM | 26.1 nM | – |
| CC(C)Oc1ccc(-c2n[nH]c3ccc(C(=O)N[C@@H]4CCCN(Cc5ccccc5F)C4)cc23)cc1 | 1.2 nM | 443 nM | 275 nM | – |
| CC(C)Oc1ccc(-c2n[nH]c3ccc(C(=O)N[C@@H]4CCCN(Cc5ccccc5F)C4)cc23)cn1 | 2 nM | 124 nM | 77.9 nM | – |
| O=C(N[C@@H]1CCCN(Cc2ccccc2F)C1)c1ccc2[nH]nc(-c3ccc4c(c3)CCO4)c2c1 | 0.61 nM | 48.6 nM | 52.1 nM | – |
| O=C(N[C@H]1CCCN(Cc2ccccc2)C1)c1ccc2[nH]nc(-c3ccncc3)c2c1 | 118 nM | 304 nM | 485 nM | – |
| O=C(N[C@H]1CCCN(Cc2ccccc2F)C1)c1ccc2[nH]nc(-c3ccncc3)c2c1 | 38 nM | 166 nM | 224 nM | – |
| O=C(N[C@@H]1CCCN(Cc2ccccc2)C1)c1ccc2[nH]nc(-c3ccncc3)c2c1 | 0.3 nM | 2.9 nM | 5.8 nM | – |
| O=C(N[C@@H]1CCCN(Cc2ccccc2F)C1)c1ccc2[nH]nc(-c3ccncc3)c2c1 | 0.6 nM | 1.1 nM | 5.5 nM | – |
| O=C(NC1CCCN(Cc2ccccc2F)C1)c1ccc2[nH]nc(-c3ccncc3)c2c1 (stereo not drawn) | 0.3 nM | 14.4 nM | 28.1 nM | – |
| O=C(NC1CCCN(Cc2ccccc2)C1)c1ccc2[nH]nc(-c3ccncc3)c2c1 (stereo not drawn) | 0.6 nM | 16.6 nM | 32.5 nM | – |
| CC(C)Oc1ccc(-c2n[nH]c3ccc(C(=O)NC4CCCN(Cc5ccccc5F)C4)cc23)cn1 (stereo not drawn) | 2.9 nM | 307 nM | 769 nM | – |
| O=C(NC1CCCN(Cc2ccccc2)C1)c1ccc2[nH]nc(-c3ccc4c(c3)CCO4)c2c1 (stereo not drawn) | 1.4 nM | 172 nM | 134 nM | – |
| O=C(NC1CCCN(Cc2ccccc2F)C1)c1ccc2[nH]nc(-c3ccc4c(c3)CCO4)c2c1 (stereo not drawn) | 2.6 nM | 231 nM | 284 nM | – |
| CC(c1ccccc1)N1CCC[C@@H](NC(=O)c2ccc3[nH]nc(-c4ccncc4)c3c2)C1 (stereo partly drawn) | 804 nM | 763 nM | 475 nM | – |
| Cc1cc(-c2n[nH]c3ccc(C(=O)N[C@@H]4CCCN(C5CCc6ccccc65)C4)cc23)ccn1 (stereo partly drawn) | 0.28 nM | – | 65.4 nM | – |
| COc1cccc(F)c1CN1C[C@H](C)C[C@@H](NC(=O)c2ccc3[nH]nc(-c4ccnc(C)c4)c3c2)C1 | 3.33 nM | – | 204 nM | – |
| COc1cccc(F)c1CN1C[C@@H](C)C[C@@H](NC(=O)c2ccc3[nH]nc(-c4ccc5nccn5c4)c3c2)C1 | 0.01 nM | – | 5.84 nM | – |
| COc1cccc(F)c1CN1C[C@H](C)C[C@@H](NC(=O)c2ccc3[nH]nc(-c4ccc5nccn5c4)c3c2)C1 | 0.03 nM | – | 10.6 nM | – |
| COc1cccc(F)c1CN1C[C@@H](C)C[C@@H](NC(=O)c2ccc3[nH]nc(-c4ccc5nn(C)cc5c4)c3c2)C1 | 0.02 nM | – | 6.1 nM | – |
| Cc1cc(-c2n[nH]c3ccc(C(=O)N[C@@H]4CCCN(CCc5ccccc5C(F)(F)F)C4)cc23)ccn1 | – | – | 86.9 nM | 2.2 nM |
| CN1CC(NC(=O)c2ccc3[nH]nc(-c4ccncc4)c3c2)CC(c2ccccc2)C1 (stereo not drawn) [drawing 158, N-(1-methyl-5-phenylpiperidin-3-yl)-3-(pyridin-4-yl)-1H-indazole-5-carboxamide] | 1.4 nM | 7.4 nM | 2.6 nM | – |
